According to PubChem BioAssay AID1963978 (Molecular Pharmacology Branch, DTP, NCI, 2024):

Test system: 616215-338-R-J1-PDC spheroids with HUVEC/MSC, viability
Test: Anticancer human tumor 616215-338-R-J1-PDC patient-derived colon adenocarcinoma cell line growth inhibition [PI3K]
Conditions: for IC50: curve of first compound; for viability, T/C: stronger effect = lower value; active means viability on the fitted dose curve at most 10% of control; inactive means the rest
How it was run: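 Multi-cell spheroids combine tumor cells with HUVEC and human MSCs, treated with targeted agents alone or with inavolisib, alpelisib, duvelisib or copanlisib. Concentrations fall in half-log steps from at or near clinical Cmax, or from 10 microM where Cmax is unknown; viability read-out.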

[1] = second compound 0.00316 µM, first compound 0.0316 µM
[2] = second compound 0.00316 µM, first compound 0.1 µM
[3] = second compound 0.01 µM, first compound 0.0316 µM
[4] = second compound 0.01 µM, first compound 0.1 µM
[5] = second compound 0.0316 µM, first compound 0.0316 µM
[6] = second compound 0.0316 µM, first compound 0.1 µM
[7] = second compound 0.1 µM, first compound 0.0316 µM
[8] = second compound 0.1 µM, first compound 0.1 µM
[9] = second compound 0.316 µM, first compound 0.0316 µM
[10] = second compound 0.316 µM, first compound 0.1 µM
[11] = second compound 1 µM, first compound 0.0316 µM
[12] = second compound 1 µM, first compound 0.1 µM
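Further: spheroids exposed to agents for seven days before the viability read.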

CC(=O)c1c(C)c2cnc(Nc3ccc(N4CCNCC4)cn3)nc2n(C2CCCC2)c1=O + COc1c(OCCCN2CCOCC2)ccc2c3n(c(=NC(=O)c4cnc(N)nc4)nc12)CCN3
< 0.316 nM: IC50 (second compound 0.316 µM) | IC50 (second compound 1 µM)
> 100 nM: IC50 (second compound 0.00316 µM) | IC50 (second compound 0.01 µM) | IC50 (second compound 0.0316 µM) | IC50 (second compound 0.1 µM)
inactive: viability, T/C (second compound 0.00316 µM, first compound 0.000316 µM) 91% | viability, T/C (second compound 0.00316 µM, first compound 0.001 µM) 98.3% | viability, T/C (second compound 0.00316 µM, first compound 0.00316 µM) 103% | viability, T/C (second compound 0.00316 µM, first compound 0.01 µM) 101% | viability, T/C [1] 88.8% | viability, T/C [2] 94.7% | viability, T/C (second compound 0.01 µM, first compound 0.000316 µM) 93.4% | viability, T/C (second compound 0.01 µM, first compound 0.001 µM) 95.9% | viability, T/C (second compound 0.01 µM, first compound 0.00316 µM) 90.7% | viability, T/C (second compound 0.01 µM, first compound 0.01 µM) 99.3% | viability, T/C [3] 101% | viability, T/C [4] 116% | viability, T/C (second compound 0.0316 µM, first compound 0.000316 µM) 103% | viability, T/C (second compound 0.0316 µM, first compound 0.001 µM) 100% | viability, T/C (second compound 0.0316 µM, first compound 0.00316 µM) 99.8% | viability, T/C (second compound 0.0316 µM, first compound 0.01 µM) 99.4% | viability, T/C [5] 97.9% | viability, T/C [6] 90.7% | viability, T/C (second compound 0.1 µM, first compound 0.000316 µM) 93.1% | viability, T/C (second compound 0.1 µM, first compound 0.001 µM) 92.7% | viability, T/C (second compound 0.1 µM, first compound 0.00316 µM) 96.1% | viability, T/C (second compound 0.1 µM, first compound 0.01 µM) 85.4% | viability, T/C [7] 79.4% | viability, T/C [8] 58.7% | viability, T/C (second compound 0.316 µM, first compound 0.000316 µM) 48.4% | viability, T/C (second compound 0.316 µM, first compound 0.001 µM) 36.3% | viability, T/C (second compound 0.316 µM, first compound 0.00316 µM) 40.9% | viability, T/C (second compound 0.316 µM, first compound 0.01 µM) 31.2% | viability, T/C [9] 37.7% | viability, T/C [10] 23.4% | viability, T/C (second compound 1 µM, first compound 0.000316 µM) 28.6% | viability, T/C (second compound 1 µM, first compound 0.001 µM) 20.7% | viability, T/C (second compound 1 µM, first compound 0.00316 µM) 18.9% | viability, T/C (second compound 1 µM, first compound 0.01 µM) 16.8% | viability, T/C [11] 18.8% | viability, T/C [12] 18.4%

CNC(=O)c1ccc(N2C(=S)N(c3ccc(C#N)c(C(F)(F)F)c3)C(=O)C2(C)C)cc1F + COc1c(OCCCN2CCOCC2)ccc2c3n(c(=NC(=O)c4cnc(N)nc4)nc12)CCN3
inactive: viability, T/C [1] 92.8% | viability, T/C [2] 92.1% | viability, T/C (second compound 0.00316 µM, first compound 0.316 µM) 95.9% | viability, T/C (second compound 0.00316 µM, first compound 1 µM) 92% | viability, T/C (second compound 0.00316 µM, first compound 3.16 µM) 99% | viability, T/C (second compound 0.00316 µM, first compound 10 µM) 93% | viability, T/C [3] 98.7% | viability, T/C [4] 108% | viability, T/C (second compound 0.01 µM, first compound 0.316 µM) 103% | viability, T/C (second compound 0.01 µM, first compound 1 µM) 93.3% | viability, T/C (second compound 0.01 µM, first compound 3.16 µM) 111% | viability, T/C (second compound 0.01 µM, first compound 10 µM) 87% | viability, T/C [5] 103% | viability, T/C [6] 98.1% | viability, T/C (second compound 0.0316 µM, first compound 0.316 µM) 99.8% | viability, T/C (second compound 0.0316 µM, first compound 1 µM) 105% | viability, T/C (second compound 0.0316 µM, first compound 3.16 µM) 96.5% | viability, T/C (second compound 0.0316 µM, first compound 10 µM) 89.1% | viability, T/C [7] 97.4% | viability, T/C [8] 89.6% | viability, T/C (second compound 0.1 µM, first compound 0.316 µM) 91.5% | viability, T/C (second compound 0.1 µM, first compound 1 µM) 107% | viability, T/C (second compound 0.1 µM, first compound 3.16 µM) 84.6% | viability, T/C (second compound 0.1 µM, first compound 10 µM) 67% | viability, T/C [9] 50.8% | viability, T/C [10] 45.3% | viability, T/C (second compound 0.316 µM, first compound 0.316 µM) 38.1% | viability, T/C (second compound 0.316 µM, first compound 1 µM) 43.1% | viability, T/C (second compound 0.316 µM, first compound 3.16 µM) 41.1% | viability, T/C (second compound 0.316 µM, first compound 10 µM) 29.2% | viability, T/C [11] 21.8% | viability, T/C [12] 22.5% | viability, T/C (second compound 1 µM, first compound 0.316 µM) 22.8% | viability, T/C (second compound 1 µM, first compound 1 µM) 22% | viability, T/C (second compound 1 µM, first compound 3.16 µM) 25.6% | viability, T/C (second compound 1 µM, first compound 10 µM) 14.4%
< 31.6 nM: IC50 (second compound 0.316 µM) | IC50 (second compound 1 µM)
> 10000 nM: IC50 (second compound 0.00316 µM) | IC50 (second compound 0.01 µM) | IC50 (second compound 0.0316 µM) | IC50 (second compound 0.1 µM)

Cn1cnc2c(F)c(Nc3ccc(Br)cc3Cl)c(C(=O)NOCCO)cc21 + COc1c(OCCCN2CCOCC2)ccc2c3n(c(=NC(=O)c4cnc(N)nc4)nc12)CCN3
< 9.49 nM: IC50 (second compound 0.316 µM) | IC50 (second compound 1 µM)
inactive: viability, T/C (second compound 0.00316 µM, first compound 0.00949 µM) 93.6% | viability, T/C (second compound 0.00316 µM, first compound 0.03 µM) 99.3% | viability, T/C (second compound 0.00316 µM, first compound 0.0949 µM) 91.1% | viability, T/C (second compound 0.00316 µM, first compound 0.3 µM) 83.3% | viability, T/C (second compound 0.00316 µM, first compound 0.949 µM) 72.8% | viability, T/C (second compound 0.00316 µM, first compound 3 µM) 41.9% | viability, T/C (second compound 0.01 µM, first compound 0.00949 µM) 99.3% | viability, T/C (second compound 0.01 µM, first compound 0.03 µM) 95% | viability, T/C (second compound 0.01 µM, first compound 0.0949 µM) 85.4% | viability, T/C (second compound 0.01 µM, first compound 0.3 µM) 86.5% | viability, T/C (second compound 0.01 µM, first compound 0.949 µM) 54.5% | viability, T/C (second compound 0.01 µM, first compound 3 µM) 38.1% | viability, T/C (second compound 0.0316 µM, first compound 0.00949 µM) 99.3% | viability, T/C (second compound 0.0316 µM, first compound 0.03 µM) 94.8% | viability, T/C (second compound 0.0316 µM, first compound 0.0949 µM) 73.7% | viability, T/C (second compound 0.0316 µM, first compound 0.3 µM) 76.3% | viability, T/C (second compound 0.0316 µM, first compound 0.949 µM) 42.5% | viability, T/C (second compound 0.0316 µM, first compound 3 µM) 24.7% | viability, T/C (second compound 0.1 µM, first compound 0.00949 µM) 94% | viability, T/C (second compound 0.1 µM, first compound 0.03 µM) 86.7% | viability, T/C (second compound 0.1 µM, first compound 0.0949 µM) 76.1% | viability, T/C (second compound 0.1 µM, first compound 0.3 µM) 58.6% | viability, T/C (second compound 0.1 µM, first compound 0.949 µM) 30.9% | viability, T/C (second compound 0.1 µM, first compound 3 µM) 13.2% | viability, T/C (second compound 0.316 µM, first compound 0.00949 µM) 37.6% | viability, T/C (second compound 0.316 µM, first compound 0.03 µM) 47.4% | viability, T/C (second compound 0.316 µM, first compound 0.0949 µM) 36.9% | viability, T/C (second compound 0.316 µM, first compound 0.3 µM) 24.9% | viability, T/C (second compound 0.316 µM, first compound 0.949 µM) 11.7% | viability, T/C (second compound 1 µM, first compound 0.00949 µM) 22.2% | viability, T/C (second compound 1 µM, first compound 0.03 µM) 12.8%
2230 nM: IC50 (second compound 0.00316 µM)
active: viability, T/C (second compound 0.316 µM, first compound 3 µM) 1.63% | viability, T/C (second compound 1 µM, first compound 0.0949 µM) 6.6% | viability, T/C (second compound 1 µM, first compound 0.3 µM) 2.1% | viability, T/C (second compound 1 µM, first compound 0.949 µM) 0.32% | viability, T/C (second compound 1 µM, first compound 3 µM) 0.32%
1350 nM: IC50 (second compound 0.01 µM)
413 nM: IC50 (second compound 0.1 µM)
810 nM: IC50 (second compound 0.0316 µM)
